# Read-outs that look alike come from different tables or passages of the source.
# Assays:
# [1] = tested on: Streptococcus pyogenes C203; test: experimental bacterial infection in mice, ED50; type: in vivo; conditions: read-out: ED50 (effective dose to protect 50% of the test animals)
# Experimental: The ester derivatives of this invention have shown in vivo antimicrobial activity against experimental bacterial infections caused by gram-positivebacteria. When two doses of test compound were administered to mice with experimental infections, the activity observed was measured as an ED50 value [effective dose in mg/kg to protect 50% of the test animals: see Warren Wick, et al., J. Bacteriol. 81, 233-235 (1961)].
# ^a mg/kg × 2; doses given 1 and 5 hours postinfection
# [2] = tested on: Pasteurella multocida 60A; test: conventional broth-dilution microtiter test, MIC; type: cell-based; conditions: avian isolate
# Experimental: (§1) The MIC's in Table III were determined by standard agar-dilutionassays. The MIC's in Table IV were obtained using a conventional broth-dilution microtiter test.
# Staphylococcus aureus = test: conventional broth-dilution microtiter test, MIC; type: cell-based
# Experimental: as §1
# Mycoplasma hyorhinis = test: conventional broth-dilution microtiter test, MIC; type: cell-based
# Experimental: as §1
# [3] = tested on: Pasteurella multocida 17E; test: conventional broth-dilution microtiter test, MIC; type: cell-based; conditions: bovine isolate
# Experimental: as §1
# Streptococcus sp. 80 = test: conventional broth-dilution microtiter test, MIC; type: cell-based
# Experimental: as §1
# Mycoplasma synoviae = test: conventional broth-dilution microtiter test, MIC; type: cell-based
# Experimental: as §1
# Mycoplasma gallisepticum = test: conventional broth-dilution microtiter test, MIC; type: cell-based
# Experimental: as §1
# [4] = tested on: Streptococcus pneumoniae Park I; test: standard agar-dilution assay, MIC; type: cell-based
# Experimental: as §1
# [5] = tested on: Staphylococcus aureus S13E; test: standard agar-dilution assay, MIC; type: cell-based
# Experimental: as §1
# [6] = tested on: Streptococcus pyogenes C203; test: standard agar-dilution assay, MIC; type: cell-based
# Experimental: as §1
# Streptococcus Group 9960 = test: standard agar-dilution assay, MIC; type: cell-based
# Experimental: as §1
# [7] = tested on: Streptococcus Group D X66; test: standard agar-dilution assay, MIC; type: cell-based
# Experimental: as §1
# [8] = tested on: Staphylococcus epidermidis EPI1; test: standard agar-dilution assay, MIC; type: cell-based
# Experimental: as §1
# [9] = tested on: Staphylococcus aureus X1.1; test: standard agar-dilution assay, MIC; type: cell-based
# Experimental: as §1
# [10] = tested on: Staphylococcus epidermidis EPI2; test: standard agar-dilution assay, MIC; type: cell-based
# Experimental: as §1
# [11] = tested on: Staphylococcus aureus V41; test: standard agar-dilution assay, MIC; type: cell-based; conditions: Staphylococcus aureus V41, penicillin resistant strain
# Experimental: as §1
# ^b Penicillinresistant strain
# [12] = tested on: Staphylococcus aureus X400; test: standard agar-dilution assay, MIC; type: cell-based; conditions: Staphylococcus aureus X400, methicillin resistant strain
# Experimental: as §1
# ^c Methicillinresistant-strain
# [13] = C203, mice, oral, doses given 1 and 5 hours postinfection
# [14] = C203, sc, mice, subcutaneous, doses given 1 and 5 hours postinfection
Compound,"ED50 [1, 13]","ED50 [1, 14]",MIC (minimal inhibitory concentration) [2],MIC (minimal inhibitory concentration) (Staphylococcus aureus),MIC (minimal inhibitory concentration) (Mycoplasma hyorhinis),MIC (minimal inhibitory concentration) [3],MIC (minimal inhibitory concentration) (Streptococcus sp. 80),MIC (minimal inhibitory concentration) (Mycoplasma synoviae),MIC (minimal inhibitory concentration) (Mycoplasma gallisepticum),MIC (minimal inhibitory concentration) [4],MIC (minimal inhibitory concentration) [5],MIC (minimal inhibitory concentration) [6],MIC (minimal inhibitory concentration) (Streptococcus Group 9960),MIC (minimal inhibitory concentration) [7],MIC (minimal inhibitory concentration) [8],MIC (minimal inhibitory concentration) [9],MIC (minimal inhibitory concentration) [10],MIC (minimal inhibitory concentration) [11],MIC (minimal inhibitory concentration) [12],"ED50 ([1]; C203, po)"
"CCC(=O)OCC1C=C(C)C=CC(=O)C(C)CC(CC=O)C(OC2OC(C)C(OC3CC(C)(O)C(OC(=O)CC)C(C)O3)C(N(C)C)C2O)C(C)C(OC(=O)CC)CC(=O)OC1CC (stereo not shown) [Compound 10, 3,23,4""-Tri-O-Propionyl-DMT]",> 150 mg/kg,13 mg/kg,50,1.56,0.78,25,1.56,0.39,≤ 0.05,0.125,0.5,0.25,1,1,1,0.5,2,1,1,
"CCC(=O)OC1C(C)OC(OC2C(C)OC(OC3C(CC=O)CC(C)C(=O)C=CC(C)=CC(C)C(CC)OC(=O)CC(O)C3C)C(OC(C)=O)C2N(C)C)CC1(C)O (stereo not shown) [Compound 22, 2'-O-Acetyl-4""-O-Propionyl-DMOT]",91 mg/kg,> 30 mg/kg,25,3.12,1.56,25,1.56,0.78,0.195,0.125,0.5,0.25,0.5,0.5,0.5,0.25,1,0.5,0.5,
"CCC(=O)OCC1C=C(C)C=CC(=O)C(C)CC(CC=O)C(OC2OC(C)C(OC3CC(C)(O)C(OC(=O)CC)C(C)O3)C(N(C)C)C2OC(C)=O)C(C)C(OC(=O)CC)CC(=O)OC1CC (stereo not shown) [Compound 9, 2'-O-Acetyl-3,23,4""-Tri-O-Propionyl-DMT]",,,> 50,1.56,0.78,> 50,1.56,0.78,0.78,0.25,1,0.5,1,1,1,1,2,1,1,
"CCC1OC(=O)CC(O)C(C)C(OC2OC(C)C(OC3CC(C)(O)C(OC(=O)Cc4ccccc4)C(C)O3)C(N(C)C)C2OC(C)=O)C(CC=O)CC(C)C(=O)C=CC(C)=CC1C (stereo not shown) [Compound 20, 2'-O-Acetyl-4""-O-Phenylacetyl-DMOT]",,,50,25,50,50,50,50,6.25,32,> 128,128,> 128,> 128,> 128,> 128,> 128,> 128,> 128,
"CCC1OC(=O)CC(OC(=O)COc2ccccc2)C(C)C(OC2OC(C)C(OC3CC(C)(O)C(O)C(C)O3)C(N(C)C)C2OC(C)=O)C(CC=O)CC(C)C(=O)C=CC(C)=CC1COC(=O)COc1ccccc1 (stereo not shown) [Compound 8, 2'-O-Acetyl-3,23-Di-O-Phenoxyacetyl-DMT]",,,,,,,,,,0.125,0.5,0.125,0.25,0.5,1,0.5,1,1,1,
"CCC1OC(=O)CC(O)C(C)C(OC2OC(C)C(OC3CC(C)(O)C(OC(=O)Cc4ccccc4)C(C)O3)C(N(C)C)C2OC(C)=O)C(CC=O)CC(C)C(=O)C=CC(C)=CC1COC(=O)Cc1ccccc1 (stereo not shown) [Compound 5, 2'-O-Acetyl-23,4""-Di-O-Phenylacetyl-DMT]",,,> 50,50,6.25,> 50,1.56,12.5,1.56,,1,,2,2,1,1,2,1,2,> 144 mg/kg
"CCC1OC(=O)CC(O)C(C)C(OC2OC(C)C(OC3CC(C)(O)C(OC(=O)COc4ccccc4)C(C)O3)C(N(C)C)C2OC(C)=O)C(CC=O)CC(C)C(=O)C=CC(C)=CC1COC(=O)COc1ccccc1 (stereo not shown) [Compound 7, 2'-O-Acetyl-4"",23-Di-O-Phenoxyacetyl-DMT]",,,> 50,12.5,0.78,> 50,0.78,,0.78,1,32,8,16,32,32,32,128,64,64,
"CCC(=O)OCC1C=C(C)C=CC(=O)C(C)CC(CC=O)C(OC2OC(C)C(OC3CC(C)(O)C(OC(=O)CC)C(C)O3)C(N(C)C)C2OC(C)=O)C(C)C(O)CC(=O)OC1CC (stereo not shown) [Compound 3, 2'-O-Acetyl-23,4""-Di-O-Propionyl-DMT]",,,12.5,0.78,0.39,12.5,0.78,0.78,0.097,0.125,0.5,0.25,1,1,0.5,0.5,1,1,1,
"CCC1OC(=O)CC(O)C(C)C(OC2OC(C)C(OC3CC(C)(O)C(OC(=O)Cc4ccccc4)C(C)O3)C(N(C)C)C2O)C(CC=O)CC(C)C(=O)C=CC(C)=CC1C (stereo not shown) [Compound 21, 4""-O-Phenylacetyl-DMOT]",,,50,12.5,3.12,> 50,6.25,6.25,0.78,0.5,8,4,16,8,8,8,16,16,16,

# — US4436733A, “4"- And 3-ester derivatives of DMT and DMOT” (Eli Lilly and Company, priority 1982, dated 1984)
